Data on two molecules can be found in EP0959987B1, “USE OF PERFLUOROALKYL SUBSTITUTED PHOSPHORUS COMPOUNDS AS LIGANDS FOR HOMOGENEOUS CATALYSIS IN SUPERCRITICAL CARBON DIOXIDE” (Studiengesellschaft Kohle mbH, priority 1997, dated 1998).

Series [1] in a line: Solubility of the complexes in scCO2 by UV spectroscopy (Lambert-Beer law, reference data for THF solutions). Format: physicochemical. Here is the method: Die Löslichkeit der Komplexe IXa,b in scCO2 wurde mittels UV-Spektroskopie bestimmt und mit der Löslichkeit der unsubstituierten Stammverbindung [(dppe)Rh(hfacac)] IXe verglichen. IXe ist selbst bei hoher Dichte ρ und damit hoher Lösungskraft des scCO2 (Angew. Chem. 1978, 90, 748) nicht löslich (T = 50 °C, […]). Mit IXa und IXb werden hingegen bereits bei niedrigen Dichten (T= 50 °C, ρ = 90 bar, ρ = 0.55 g cm^-3) gelb-orange Lösungen erhalten. Aus den Absorptionsmaxima der UV-Spektren (siehe Abb. 1) läßt sich über das Lambert-Beer'sche-Gesetz mittels Vergleichsdaten für THF-Lösungen eine Sättigungskonzentration von 6.3 x 10^-5 M für IXa und 7.5 x 10^-5 M für IXb ermitteln. Zum Vergleich ist in Abb. 1 auch das UV-Spektrum des Komplexes IXf mit der Alkylphosphorverbindung 1,2-Bis(dicyclohexylphosphino)ethan (dcpe) aufgeführt. Die Löslichkeit von IXf in scCO2 beträgt unter identischen Bedingungen 1.1 x 10^-5 M, ist also um 5x bzw. 7x geringer als die von IXa und IXb. [formula]

For series [2] the following is noted: scCO2, T = 50 °C, p = 345 bar; cited from earlier work.

Consider `O=C([CH-]C(=O)C(F)(F)F)C(F)(F)F.[Rh+].c1ccc(P(CCP(c2ccccc2)c2ccccc2)c2ccccc2)cc1` [IXe, [(dppe)Rh(hfacac)], reference compound], for which the “Löslichkeit in scCO2” value in series [1] is recorded as “nicht löslich”.

In the case of [(Duphos)Rh(η^4-C8H12)]^+, in series [2], the “maximale Löslichkeit” value was 30 µM.
